Measurements from PubChem BioAssay (NCI).
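Each compound was tested at five concentrations against cells in 96-well plates for 48 hours. The concentration for full growth arrest is given as TGI.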

Legend:
Assay in all cases: growth of human tumour cells (NCI), 48 h
786-0 renal = system: 786-0 renal
A498 renal = system: A498 renal
A549 NSCLC = system: A549 NSCLC
ACHN renal = system: ACHN renal
BT-549 breast = system: BT-549 breast
CAKI-1 renal = system: CAKI-1 renal
CCRF-CEM leukemia = system: CCRF-CEM leukemia
COLO 205 colon = system: COLO 205 colon
DU-145 prostate = system: DU-145 prostate
EKVX NSCLC = system: EKVX NSCLC
HCC-2998 colon = system: HCC-2998 colon
HCT-116 colon = system: HCT-116 colon
HCT-15 colon = system: HCT-15 colon
HL-60(TB) leukemia = system: HL-60(TB) leukemia
HOP-62 NSCLC = system: HOP-62 NSCLC
HS 578T breast = system: HS 578T breast
HT29 colon = system: HT29 colon
IGROV1 ovarian = system: IGROV1 ovarian
K-562 leukemia = system: K-562 leukemia
KM12 colon = system: KM12 colon
LOX IMVI melanoma = system: LOX IMVI melanoma
M14 melanoma = system: M14 melanoma
MALME-3M melanoma = system: MALME-3M melanoma
MCF7 breast = system: MCF7 breast
MDA-MB-231 breast = system: MDA-MB-231 breast
MDA-MB-435 = system: MDA-MB-435
MDA-N = system: MDA-N
MOLT-4 leukemia = system: MOLT-4 leukemia
NCI-H226 lung = system: NCI-H226 lung
NCI-H23 lung = system: NCI-H23 lung
NCI-H460 lung = system: NCI-H460 lung
NCI-H522 lung = system: NCI-H522 lung
OVCAR-3 ovarian = system: OVCAR-3 ovarian
OVCAR-4 ovarian = system: OVCAR-4 ovarian
OVCAR-5 ovarian = system: OVCAR-5 ovarian
OVCAR-8 ovarian = system: OVCAR-8 ovarian
PC-3 prostate = system: PC-3 prostate
RPMI-8226 leukemia = system: RPMI-8226 leukemia
RXF 393 renal = system: RXF 393 renal
SF-268 CNS = system: SF-268 CNS
SF-295 CNS = system: SF-295 CNS
SF-539 CNS = system: SF-539 CNS
SK-MEL-2 melanoma = system: SK-MEL-2 melanoma
SK-MEL-28 melanoma = system: SK-MEL-28 melanoma
SK-MEL-5 melanoma = system: SK-MEL-5 melanoma
SK-OV-3 ovarian = system: SK-OV-3 ovarian
SN12C renal = system: SN12C renal
SNB-19 CNS = system: SNB-19 CNS
SNB-75 CNS = system: SNB-75 CNS
SR leukemia = system: SR leukemia
SW-620 colon = system: SW-620 colon
T-47D breast = system: T-47D breast
TK-10 renal = system: TK-10 renal
U251 CNS = system: U251 CNS
UACC-257 melanoma = system: UACC-257 melanoma
UACC-62 melanoma = system: UACC-62 melanoma
UO-31 renal = system: UO-31 renal

Measured: TGI

CN(C)CCNC(=O)c1cc([N+](=O)[O-])cn1C
> 100 µM: all assays above
